Laboratory results as given in the supplement of paper PMC10307832.

What was measured:
Experiment in all cases: relative viability (nuclei count vs DMSO), 5 days (fraction); higher = more cells survive
NCI-H2023 = tested on: NCI-H2023
Outline: (§1)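 Five library-drug doses in √10 steps were combined with a fixed anchor-drug dose, or a single drug was given alone, by pin tool to lung cancer cell lines in 1536-well plates the day after seeding. Nuclei were stained and counted after 5 days. Relative viability is the nuclei count in treated wells over that in vehicle wells, taken as the median of duplicate plates.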

NCI-H2087 = tested on: NCI-H2087
Outline: as §1

NCI-H2126 = tested on: NCI-H2126
Outline: as §1

NCI-H2347 = tested on: NCI-H2347
Outline: as §1

NCI-H23 = tested on: NCI-H23
Outline: as §1

NCI-H3122 = tested on: NCI-H3122
Outline: as §1

NCI-H441 = tested on: NCI-H441
Outline: as §1

NCI-H596 = tested on: NCI-H596
Outline: as §1

NCI-H647 = tested on: NCI-H647
Outline: as §1

NCI-H650 = tested on: NCI-H650
Outline: as §1

NCI-H727 = tested on: NCI-H727
Outline: as §1

NCI-H838 = tested on: NCI-H838
Outline: as §1

Clc1ccc(Nc2nnc(Cc3ccncc3)c3ccccc23)cc1 [Vatalanib] + C[C@]1(O)C[C@@H](c2nc(-c3ccc4ccc(-c5ccccc5)nc4c3)c3c(N)nccn32)C1 [Linsitinib] (partner 1 µM)
relative viability (NCI-H2023; first compound 0.4 µM): 0.815 | relative viability (NCI-H2023; first compound 1.265 µM): 0.571 | relative viability (NCI-H2023; first compound 4 µM): 0.705 | relative viability (NCI-H2087; first compound 0.04 µM): 1.2 | relative viability (NCI-H2087; first compound 0.1265 µM): 0.87 | relative viability (NCI-H2087; first compound 0.4 µM): 1.04 | relative viability (NCI-H2087; first compound 1.265 µM): 0.908 | relative viability (NCI-H2087; first compound 4 µM): 1.05 | relative viability (NCI-H2126; first compound 0.04 µM): 0.669 | relative viability (NCI-H2126; first compound 0.1265 µM): 0.72 | relative viability (NCI-H2126; first compound 0.4 µM): 0.669 | relative viability (NCI-H2126; first compound 1.265 µM): 0.729 | relative viability (NCI-H2126; first compound 4 µM): 0.739 | relative viability (NCI-H2347; first compound 0.04 µM): 1.01 | relative viability (NCI-H2347; first compound 0.1265 µM): 0.908 | relative viability (NCI-H2347; first compound 0.4 µM): 0.976 | relative viability (NCI-H2347; first compound 1.265 µM): 0.901 | relative viability (NCI-H2347; first compound 4 µM): 0.942 | relative viability (NCI-H23; first compound 0.04 µM): 0.533 | relative viability (NCI-H23; first compound 0.1265 µM): 0.659 | relative viability (NCI-H23; first compound 0.4 µM): 0.601 | relative viability (NCI-H23; first compound 1.265 µM): 0.495 | relative viability (NCI-H23; first compound 4 µM): 0.583 | relative viability (NCI-H3122; first compound 0.04 µM): 1.14 | relative viability (NCI-H3122; first compound 0.1265 µM): 0.97 | relative viability (NCI-H3122; first compound 0.4 µM): 0.961 | relative viability (NCI-H3122; first compound 1.265 µM): 1.02 | relative viability (NCI-H3122; first compound 4 µM): 1.02 | relative viability (NCI-H441; first compound 0.04 µM): 0.597 | relative viability (NCI-H441; first compound 0.1265 µM): 0.515 | relative viability (NCI-H441; first compound 0.4 µM): 0.583 | relative viability (NCI-H441; first compound 1.265 µM): 0.722 | relative viability (NCI-H441; first compound 4 µM): 0.645 | relative viability (NCI-H596; first compound 0.04 µM): 1.18 | relative viability (NCI-H596; first compound 0.1265 µM): 1.13 | relative viability (NCI-H596; first compound 0.4 µM): 0.951 | relative viability (NCI-H596; first compound 1.265 µM): 1.14 | relative viability (NCI-H596; first compound 4 µM): 1.08 | relative viability (NCI-H647; first compound 0.04 µM): 1.02 | relative viability (NCI-H647; first compound 0.1265 µM): 1.14 | relative viability (NCI-H647; first compound 0.4 µM): 1.2 | relative viability (NCI-H647; first compound 1.265 µM): 1.21 | relative viability (NCI-H647; first compound 4 µM): 1.09 | relative viability (NCI-H650; first compound 0.04 µM): 0.942 | relative viability (NCI-H650; first compound 0.1265 µM): 0.77 | relative viability (NCI-H650; first compound 1.265 µM): 0.723 | relative viability (NCI-H650; first compound 4 µM): 0.833 | relative viability (NCI-H727; first compound 0.04 µM): 0.3 | relative viability (NCI-H727; first compound 0.1265 µM): 0.184 | relative viability (NCI-H727; first compound 0.4 µM): 0.358 | relative viability (NCI-H727; first compound 1.265 µM): 0.236 | relative viability (NCI-H727; first compound 4 µM): 0.285 | relative viability (NCI-H838; first compound 0.04 µM): 1.01 | relative viability (NCI-H838; first compound 0.1265 µM): 0.994 | relative viability (NCI-H838; first compound 0.4 µM): 1.15 | relative viability (NCI-H838; first compound 1.265 µM): 0.932 | relative viability (NCI-H838; first compound 4 µM): 0.976
